Here are results for three molecules from patent US4820726A, “Oxaloamino substituted fluorinated resorcinol ethers and anti-allergic and anti-inflammatory use thereof” (Ciba-Geigy Corporation, priority 1985, dated 1989).

Assay [1] has as its target phospholipase A2 from human leucocytes. The assay can be described thus: In vitro test for the determination of the inhibition of phospholipase A2 from human leucocytes. The assay is classed as biochemical. Particulars: enzyme from human leucocytes, 14C-oleic acid labelled E. coli phospholipids, pH 7, 37° C., 1 hour; read-out: IC50, concentration which causes an inhibition of 50% of the control activity of phospholipase A2. An excerpt:
In vitro test for the determination of the inhibition of phospholipase A2 from human leucocytes
Neutrophilic polymorphonuclear human leucocytes are isolated, starting from "buffy coats" by multi-stage fractional sedimentation and are deep-frozen.The phospholipase A2 is extracted from the cell suspension by homogenisation with the addition of ice-cold 0.36N H2 SO4 in 2M NaCl, and the supernatant obtained after centrifugation at 10,000 g is dialysed against sodium acetate buffer, pH 4.5.
To determine the enzyme activity, the enzyme (10-30 μg of protein) is incubated in 0.1M tris/HCl buffer, pH 7, with the addition of 1 mM CaCl2 and substrate consisting of phospholipids (2 μM), radioactively labelled biosynthetically with ^14 C-oleic acid, of Escherichia coli, at 37° C. for 1 hour. The reaction is stopped by addition of Dole reagent (isopropanol/heptane/1N H2 SO4 40:10:1, volume/volume) and the ^14 C-oleic acid released selectively by phospholipase A2 is extracted. The substrate also co-extracted is removed completely by filtration of the extract through a silica gel column. The ^14 C-oleic acid in the eluate is determined by radiometry.
To determine an inhibiting effect of test substances on the phospholipase A2, these are added to the incubation batch as solutions in water, dimethylsulfoxide (final concentration in the batch up to 5 vol %) or ethanol (final concentration in the batch up to 2.5 vol %). The action potency of the test substances is expressed by the IC50, i.e. the concentration which causes an inhibition of 50% of the control activity. The IC50 is determined graphically by plotting the percentage inhibition on the ordinate against the logarithm of the concentration (μM) on the abscissa.

Assay [2] deals with LTD4 -induced contractions of the guinea-pig ileum. The assay can be described thus: Inhibiting effect on LTD4-induced contractions of the guinea-pig ileum. It counts as cell-based. The settings on record: Cavia porcellus; isolated guinea-pig ileum, Tyrode solution, 38° C.; read-out: IC50, concentration which reduces LTD4 -induced contractions to 50% of the starting value. How it is done: Thus, they have an antiallergic action based on a pronounced LTD4 -(leucotriene-D4)- and PAF-(PAF-acetoether)-antagonism.
Inhibiting effect on LTD4 -induced contractions of the guinea-pig ileum
Contractions are triggered off by synthetic LTD4 (leucotriene D4, potassium salt) on ileum segments which have been taken from guinea-pigs with a body weight of 300 to 400 g, fixed in an organ bath in Tyrode solution (38° C., gassing with 95% of O2 and 5% of CO2) and loaded with […], and the degree of the contractions is recorded. The degree of inhibition of these contractions to be attributed to the LTD4 -antagonistic action of the test substance is measured. The concentration, designated the IC50, of the test substance which reduces LTD4 -induced contractions to 50% of the starting value is determined.

SMILES strings stand for the structures.

Consider `CCCc1c(OCC(O)COc2cccc(NC(=O)C(=O)O)c2C#N)ccc(C(C)=O)c1O` (centres unmarked) [N-{3-[3-(4-acetyl-3-hydroxy-2-propyl-phenoxy)-2-hydroxypropoxy]-2-cyano-phenyl}-oxamic acid, reference compound], for which the IC50 in assay [1] is above 100 µM; in assay [2] it was 0.087 µM. The matching figures for `CC(=O)c1ccc(OCCCOc2cc(NC(=O)c3nnn[nH]3)c(C)cc2Br)c(CCC(F)(F)F)c1O` [N-{{3-{3-[4-acetyl-3-hydroxy-2-(3,3,3-trifluoropropyl)phenoxy]-propoxy}-4-bromo-6-methyl-phenyl}}-1H-tetrazole-5-carboxamide]: 12 µM and 0.01 µM. `CC(=O)c1ccc(OCCCOc2cc(NC(=O)c3nnn[nH]3)c(C)cc2Cl)c(CCC(F)(F)F)c1O` [N-{{3-{3-[4-acetyl-3-hydroxy-2-(3,3,3-trifluoropropyl)-phenoxy]-propoxy}-4-chloro-6-methyl-phenyl}}-1H-tetrazole-5-carboxamide]: the IC50 in assay [1] came out at 13 µM.
